# Laboratory results: patent publication US20220324865A1 (Bayer Aktiengesellschaft, priority 2018, published 2022)
# Structures can show the parent of a compound that is named as a salt.
# Target: T1, human EP3 receptor (Homo sapiens, UniProt P43115)
# T1 construct: expressed in transfected cells; host or cells: CHO K1 (Chinese Hamster Ovary), stably co-transfected with Galpha16 and mitochondrial clytin
# T1 sequence (P43115 1-390): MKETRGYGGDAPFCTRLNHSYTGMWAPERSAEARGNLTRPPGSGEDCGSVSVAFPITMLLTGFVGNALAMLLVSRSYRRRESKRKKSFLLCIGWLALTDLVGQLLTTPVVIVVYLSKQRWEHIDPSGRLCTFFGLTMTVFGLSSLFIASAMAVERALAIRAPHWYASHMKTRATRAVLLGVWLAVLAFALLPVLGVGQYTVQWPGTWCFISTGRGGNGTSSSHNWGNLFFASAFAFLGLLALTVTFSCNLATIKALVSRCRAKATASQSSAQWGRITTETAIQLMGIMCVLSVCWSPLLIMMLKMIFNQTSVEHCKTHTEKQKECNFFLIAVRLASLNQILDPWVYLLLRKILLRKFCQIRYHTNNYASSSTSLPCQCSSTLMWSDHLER
# Assay: Cellular in vitro assay for determining EP3 receptor activity (human EP3 cell line, sulprostone-stimulated calcium luminescence)
# Type: cell-based
# Conditions: CHO cells expressing human EP3 and mitochondrial Clytin; antagonist mode, sulprostone at EC50; read-out: EP3 CHO mtCLY ANTAG IC50
# In short: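 Antagonist activity was measured as inhibition of the luminescent calcium signal elicited by EC50 sulprostone, following 10 min compound pretreatment. The cell line was recombinant CHO K1 co-expressing human EP3, Gα16 and the photoprotein Clytin, reconstituted with coelenterazine.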
row,Structure (SMILES),IC50
1,"COC[C@@H](NC(=O)c1cc2c(=O)[nH]c(-c3ccc(C)c(C)c3)cn2n1)c1ccccc1 [Example 1-13, 6-(3,4-Dimethylphenyl)-N-[(1S)-2-methoxy-1-phenylethyl]-4-oxo-4,5-dihydropyrazolo[1,5-a]-pyrazine-2-carboxamide]",1.15 nM
2,"Cc1ccc(-c2cn3nc(C(=O)N[C@H](C)c4ccc(C(F)(F)F)cc4)cc3c(=O)[nH]2)cc1C [Example 1-15, 6-(3,4-Dimethylphenyl)-4-oxo-N-{(1R)-1-[4-(trifluoromethyl)phenyl]ethyl}-4,5-dihydropyrazolo-[1,5-a]pyrazine-2-carboxamide]",1.7 nM
3,"COCc1c(C(=O)NC2(c3ccc(F)cc3)CN(C)C2)nn2cc(-c3ccc4ccccc4c3)[nH]c(=O)c12 [Example 1-21, N-[3-(4-Fluorophenyl)-1-methylazetidin-3-yl]-3-(methoxymethyl)-6-(naphthalen-2-yl)-4-oxo-4,5-dihydropyrazolo[1,5-a]pyrazine-2-carboxamide]",1.25 nM
4,"COCc1c(C(=O)N[C@H](C)c2ccc(OC)nc2)nn2cc(-c3ccc4ccccc4c3)[nH]c(=O)c12 [Example 1-22, 3-(Methoxymethyl)-N-[(1R)-1-(6-methoxypyridin-3-yl)ethyl]-6-(naphthalen-2-yl)-4-oxo-4,5-dihydropyrazolo[1,5-a]pyrazine-2-carboxamide]",0.37 nM
5,"O=C(N[C@H](CCO)c1ccc(F)cc1)c1cc2c(=O)[nH]c(-c3ccc4c(c3)COCC4)cn2n1 [Example 1-24, 6-(3,4-Dihydro-1H-isochromen-7-yl)-N-[(1R)-1-(4-fluorophenyl)-3-hydroxypropyl]-4-oxo-4,5-dihydropyrazolo[1,5-a]pyrazine-2-carboxamide]",7.3 nM
6,"CCN(CCO)CC(NC(=O)c1cc2c(=O)[nH]c(-c3ccc4ccccc4c3)cn2n1)c1ccccc1 (centres unmarked) [Example 1-27, N-[2-[Ethyl(2-hydroxyethyl)amino]-1-phenylethyl]-6-(2-naphthyl)-4-oxo-5H-pyrazolo[1,5-a]-pyrazine-2-carboxamide]",2.25 nM
7,"CC(C)(O)[C@@H](NC(=O)c1cc2c(=O)[nH]c(-c3ccc4ccccc4c3)cn2n1)c1ccc(F)cc1 [Example 1-29, N-[(1S)-1-(4-Fluorophenyl)-2-hydroxy-2-methylpropyl]-6-(naphthalen-2-yl)-4-oxo-4,5-dihydropyrazolo[1,5-a]pyrazine-2-carboxamide]",1.55 nM
8,"CN1CC(NC(=O)c2nn3cc(-c4ccc5ccccc5c4)[nH]c(=O)c3c2C(F)(F)F)(c2ccc(F)cc2)C1 [Example 1-32, N-[3-(4-Fluorophenyl)-1-methylazetidin-3-yl]-6-(naphthalen-2-yl)-4-oxo-3-(trifluoromethyl)-4,5-dihydropyrazolo[1,5-a]pyrazine-2-carboxamide]",1.6 nM
9,"Cc1c(C(=O)NC2(c3ccc(F)cc3)CN(C)C2)nn2cc(-c3ccc4ccccc4c3)[nH]c(=O)c12 [Example 1-34, N-[3-(4-Fluorophenyl)-1-methylazetidin-3-yl]-3-methyl-6-(naphthalen-2-yl)-4-oxo-4,5-dihydropyrazolo[1,5-a]pyrazine-2-carboxamide formic acid salt]",4.18 nM
10,"Cc1ccc(-c2cn3nc(C(=O)NC4(c5ccc(F)cc5)CN(C)C4)c(C4CC4)c3c(=O)[nH]2)cc1C [Example 1-36, 3-Cyclopropyl-6-(3,4-dimethylphenyl)-N-[3-(4-fluorophenyl)-1-methylazetidin-3-yl]-4-oxo-4,5-dihydropyrazolo[1,5-a]pyrazine-2-carboxamide]",2.19 nM
11,"CN1CCOc2cc(-c3cn4nc(C(=O)N[C@H](CCO)c5ccc(F)cc5)cc4c(=O)[nH]3)ccc21 [Example 1-37, N-[(1R)-1-(4-Fluorophenyl)-3-hydroxopyl]-6-(4-methyl-3,4-dihydro-2H-1,4-benzoxazin-7-yl)-4-oxo-4,5-dihydropyrazolo[1,5-a]pyrazine-2-carboxamide]",0.95 nM

# Further molecules by falling IC50, results first:
row,IC50,Structure (SMILES)
1,5.8 nM,"Cc1cccc2ncc(-c3cn4nc(C(=O)NC5(c6ccc(F)cc6)CN(C)C5)c(C(C)C)c4c(=O)[nH]3)cc12 [Example 1-25, N-[3-(4-Fluorophenyl)-1-methylazetidin-3-yl]-6-(5-methylquinolin-3-yl)-4-oxo-3-(propan-2-yl)-4,5-dihydropyrazolo[1,5-a]pyrazine-2-carboxamide]"
2,5.55 nM,"Cc1c(C(=O)N[C@H](C)c2ccc(F)cc2)nn2c(C)c(-c3ccc4ccccc4c3)[nH]c(=O)c12 [Example 1-23, N-[(1R)-1-(4-Fluorophenyl)ethyl]-3,7-dimethyl-6-(naphthalen-2-yl)-4-oxo-4,5-dihydropyrazolo-[1,5-a]pyrazine-2-carboxamide]"
3,4.25 nM,"Cc1c(C(=O)NC2(c3ccc(F)cc3)CN(C)C2)nn2cc(-c3ccc4ccccc4c3)[nH]c(=O)c12 [Example 1-35, N-[3-(4-Fluorophenyl)-1-methylazetidin-3-yl]-3-methyl-6-(naphthalen-2-yl)-4-oxo-4,5-dihydropyrazolo[1,5-a]pyrazine-2-carboxamide hydrochloride]"
4,4.09 nM,"CN(C)C[C@@H](NC(=O)c1cc2c(=O)[nH]c(-c3ccc4ccccc4c3)cn2n1)c1ccccc1 [Example 1-38, N-[(1S)-2-(Dimethylamino)-1-phenylethyl]-6-(naphthalen-2-yl)-4-oxo-4,5-dihydropyrazolo[1,5-a]-pyrazine-2-carboxamide formic acid salt]"
5,4.05 nM,"CC(NC(=O)c1nn2cc(-c3ccc4ccccc4c3)[nH]c(=O)c2c1C(F)(F)F)c1ccc(OCC(F)(F)F)cn1 (centres unmarked) [Example 1-30, 6-(2-Naphthyl)-4-oxo-N-[1-[5-(2,2,2-trifluoroethoxy)-2-pyridyl]ethyl]-3-(trifluoromethyl)-5H-pyrazolo[1,5-a]pyrazine-2-carboxamide trifluoroacetic acid salt]"
6,2 nM,"COc1ccc(CNC(=O)c2cc3c(=O)[nH]c(-c4ccc5c(c4)N(C)CCO5)cn3n2)cc1OC [Example 1-16, N-(3,4-Dimethoxybenzyl)-6-(4-methyl-3,4-dihydro-2H-1,4-benzoxazin-6-yl)-4-oxo-4,5-dihydropyrazolo[1,5-a]pyrazine-2-carboxamide]"
7,1.84 nM,"CN1CC(NC(=O)c2nn3cc(-c4ccc5ccccc5c4)[nH]c(=O)c3c2C(F)(F)F)(c2ccc(F)cc2)C1 [Example 1-31, N-[3-(4-Fluorophenyl)-1-methylazetidin-3-yl]-6-(naphthalen-2-yl)-4-oxo-3-(trifluoromethyl)-5H-pyrazolo[1,5-a]pyrazine-2-carboxamide trifluoroacetic acid salt]"
8,1.4 nM,"CCN(CCO)CC(NC(=O)c1nn2cc(-c3ccc4ccccc4c3)[nH]c(=O)c2c1C1CC1)c1ccccc1 (centres unmarked) [Example 1-26, 3-Cyclopropyl-N-[2-[ethyl(2-hydroxyethyl)amino]-1-phenylethyl]-6-(2-naphthyl)-4-oxo-5H-pyrazolo[1,5-a]pyrazine-2-carboxamide]"
9,1.09 nM,"COCc1c(C(=O)N[C@H](C)c2ccc(F)cc2)nn2cc(-c3ccc4ccccc4c3)[nH]c(=O)c12 [Example 1-20, N-[(1R)-1-(4-Fluorophenyl)ethyl]-3-(methoxymethyl)-6-(naphthalen-2-yl)-4-oxo-4,5-dihydropyrazolo[1,5-a]pyrazine-2-carboxamide]"
10,1.04 nM,"CC(C)(O)[C@@H](NC(=O)c1nn2cc(-c3ccc4ccccc4c3)[nH]c(=O)c2c1C(F)(F)F)c1ccccc1 [Example 1-18, N-[(1S)-2-Hydroxy-2-methyl-1-phenylpropyl]-6-(naphthalen-2-yl)-4-oxo-3-(trifluoromethyl)-4,5-dihydropyrazolo[1,5-a]pyrazine-2-carboxamide]"
11,0.855 nM,"CCN(CCO)CC(NC(=O)c1nn2cc(-c3ccc4ccccc4c3)[nH]c(=O)c2c1C(F)(F)F)c1ccccc1 (centres unmarked) [Example 1-28, N-[2-[Ethyl(2-hydroxyethyl)amino]-1-phenylethyl]-6-(2-naphthyl)-4-oxo-3-(trifluoromethyl)-5H-pyrazolo[1,5-a]pyrazine-2-carboxamide]"
12,0.705 nM,"CC(C)(O)[C@@H](NC(=O)c1nn2cc(-c3ccc4ccccc4c3)[nH]c(=O)c2c1C(F)(F)F)c1ccc(F)cc1 [Example 1-19, N-[(1S)-1-(4-Fluorophenyl)-2-hydroxy-2-methylpropyl]-6-(naphthalen-2-yl)-4-oxo-3-(trifluoromethyl)-4,5-dihydropyrazolo[1,5-a]pyrazine-2-carboxamide]"
13,0.575 nM,"O=C(N[C@H](CCO)c1ccc(F)cc1)c1nn2cc(-c3ccc4ccccc4c3)[nH]c(=O)c2c1C(F)(F)F [Example 1-17, N-[(1R)-1-(4-Fluorophenyl)-3-hydroxpropyl]-6-(naphthalen-2-yl)-4-oxo-3-(trifluoromethyl)-4,5-dihydropyrazolo[1,5-a]pyrazine-2-carboxamide]"
14,0.265 nM,"Cc1ccc(-c2cn3nc(C(=O)N[C@H](CCO)c4ccc(F)cc4)cc3c(=O)[nH]2)cc1C [Example 1-39, 6-(3,4-Dimethylphenyl)-N-[(1R)-1-(4-fluorophenyl)-3-hydroxpropyl]-4-oxo-4,5-dihydropyrazolo-[1,5-a]pyrazine-2-carboxamide]"
15,0.14 nM,"Cc1ccc(-c2cn3nc(C(=O)N[C@H](CCO)c4ccccc4)cc3c(=O)[nH]2)cc1C [Example 1-14, 6-(3,4-Dimethylphenyl)-N-[(1R)-3-hydroxy-1-phenylpropyl]-4-oxo-4,5-dihydropyrazolo[1,5-a]-pyrazine-2-carboxamide]"
